Laboratory results from article doi:10.64898/2025.12.08.692997v2 (biorxiv, 2025).
Where a name gives a salt, the structure may show the parent alone. Read-outs that look alike come from different tables or passages of the source. Values belong to the compound of their own block, whether it stands above or below them.

Legend:
Assay in all cases: biochemical
[1] = target: T1, human EphB2-His ectodomain - human EphrinB2-Fc ectodomain (EphB2-EphrinB2 tetramer) (Homo sapiens, UniProt P29323+P52799)
[2] = target: T1, human EphB2-His ectodomain - human EphrinB2-Fc ectodomain (EphB2-EphrinB2 tetramer); settings: Octet IC50 data EB2-EphB2 (Relative)
[3] = target: T1, human EphB2-His ectodomain - human EphrinB2-Fc ectodomain (EphB2-EphrinB2 tetramer); settings: Octet IC50 data EB2-EphB2 (Absolute)
[4] = target: T1, human EphB2-His ectodomain - human EphrinB2-Fc ectodomain (EphB2-EphrinB2 tetramer); remark: listed apart in the source
[5] = target: T1, human EphB2-His ectodomain - human EphrinB2-Fc ectodomain (EphB2-EphrinB2 tetramer); remark: listed apart in the source
[6] = target: T1, human EphB2-His ectodomain - human EphrinB2-Fc ectodomain (EphB2-EphrinB2 tetramer); settings: EphrinB2-EphB2 IC50 (Absolute, µM)
[7] = target: T1, human EphB2-His ectodomain - human EphrinB2-Fc ectodomain (EphB2-EphrinB2 tetramer); settings: EphrinB2-EphB2 IC50 (Relative, µM)

T1 sequence (P52799 28-229): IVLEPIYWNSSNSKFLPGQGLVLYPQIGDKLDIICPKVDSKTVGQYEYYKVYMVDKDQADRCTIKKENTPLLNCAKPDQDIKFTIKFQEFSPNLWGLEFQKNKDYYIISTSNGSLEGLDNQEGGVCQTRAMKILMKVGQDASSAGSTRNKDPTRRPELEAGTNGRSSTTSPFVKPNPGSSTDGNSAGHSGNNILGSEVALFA
T1 sequence (P29323 19-543): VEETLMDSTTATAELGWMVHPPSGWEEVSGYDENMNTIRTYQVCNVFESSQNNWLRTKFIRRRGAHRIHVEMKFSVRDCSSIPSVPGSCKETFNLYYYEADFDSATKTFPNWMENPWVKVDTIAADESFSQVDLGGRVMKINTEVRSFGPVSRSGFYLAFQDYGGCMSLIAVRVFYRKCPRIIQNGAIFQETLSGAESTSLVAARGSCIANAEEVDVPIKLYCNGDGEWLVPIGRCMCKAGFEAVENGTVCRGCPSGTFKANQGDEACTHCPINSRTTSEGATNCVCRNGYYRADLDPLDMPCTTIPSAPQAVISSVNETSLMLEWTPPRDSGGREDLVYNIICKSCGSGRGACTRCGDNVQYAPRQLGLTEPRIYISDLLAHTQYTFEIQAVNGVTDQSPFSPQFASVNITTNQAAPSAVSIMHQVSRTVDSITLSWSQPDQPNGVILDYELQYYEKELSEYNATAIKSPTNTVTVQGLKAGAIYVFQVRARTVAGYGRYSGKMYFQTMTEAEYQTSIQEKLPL

SMILES: CC(C)Cc1ccc(C(C)C(=O)O)cc1 (stereo not drawn) [compound 3, Ibuprofen]
IC50 [1]: > 100000 nM

SMILES: CN(C)CCC(c1ccc(Cl)cc1)c1ccccn1 (stereo not drawn) [compound 6, Chloropheniramine maleate]
IC50 [1]: > 100000 nM

SMILES: Clc1cc2c(c3ncccc13)OCN(Cc1cccnc1)C2 [compound 2, 6-chloro-3-(pyridin-3-ylmethyl)-3,4-dihydro-2H-[1,3]oxazino[5,6-h]quinoline]
IC50 [2]: 740 nM | IC50 [3]: 850 nM

SMILES: CC1(C)CC(N2COc3c(cc(Cl)c4cccnc34)C2)CC(C)(C)N1 [compound 5, 6-chloro-3-(2,2,6,6-tetramethylpiperidin-4-yl)-3,4-dihydro-2H-[1,3]oxazino[5,6-h]quinoline]
IC50 [2]: 1150 nM | IC50 [3]: 1740 nM

SMILES: CN(C)C(=O)Oc1c(Br)cc(Cl)c2cccnc12 [compound 8, 7-bromo-5-chloro-8-quinolinyl dimethylcarbamate]
IC50 [5]: > 100000 nM

SMILES: Cc1ccc(N(C)C(=O)Oc2c(Br)cc(Br)c3ccc(C)nc23)cc1 [compound 13, 5,7-dibromo-2-methylquinolin-8-yl methyl(4-methylphenyl)carbamate]
IC50 [5]: > 100000 nM

SMILES: CC(C)(C)N1COc2c(cc(Cl)c3cccnc23)C1 [compound 3, 3-(tert-butyl)-6-chloro-3,4-dihydro-2H-[1,3]oxazino[5,6-h]quinoline]
IC50 [2]: 1780 nM | IC50 [3]: 1950 nM

SMILES: CN(C(=O)Oc1cccc2cccnc12)c1ccccc1 [compound 2, 8-quinolinyl methyl(phenyl)carbamate]
IC50 [5]: > 100000 nM

SMILES: CNC[C@H](O)c1cccc(O)c1 [compound 5, Phenylephrine hydrochloride]
IC50 [1]: > 100000 nM

SMILES: CC(=O)Oc1ccccc1C(=O)O [compound 1, Aspirin]
IC50 [1]: > 100000 nM

SMILES: CN(C(=O)Oc1c(Cl)cc(Cl)c2cccnc12)c1ccccc1 [compound 3, 5,7-dichloro-8-quinolinyl methyl(phenyl)carbamate]
IC50 [5]: > 100000 nM

SMILES: O=C(Cc1ccccc1)Nc1ccc(N2CCN(Cc3cc(Br)c(O)c4ncccc34)CC2)cc1 [BQPA-PAc, N-(4-(4-((7-bromo-8-hydroxyquinolin-5-yl)methyl)piperazin-1-yl)phenyl)-2-phenylacetamide]
IC50 [6]: > 3.2 µM | IC50 [7]: > 3.2 µM

SMILES: Clc1cc2c(c3ncccc13)OCN(CC1CCCO1)C2 (stereo not drawn) [4a, 6-chloro-3-((tetrahydrofuran-2-yl)methyl)-3,4-dihydro-2H-[1,3]oxazino[5,6-h]quinoline]
IC50 [2]: 720 nM | IC50 [3]: 810 nM

SMILES: Clc1cc2c(c3ncccc13)OCN(C1CCCC1)C2 [1b, 6-chloro-3-cyclopentyl-3,4-dihydro-2H-[1,3]oxazino[5,6-h]quinoline]
IC50 [2]: 1200 nM | IC50 [3]: 1380 nM

SMILES: O=[N+]([O-])c1cc(CN2CCOCC2)c2cccnc2c1O [A19-NO2, 5-(morpholinomethyl)-7-nitroquinolin-8-ol]
IC50 [6]: > 3.2 µM | IC50 [7]: > 3.2 µM

SMILES: OCc1ccc2c(CN3CCOCC3)ccc(O)c2n1 [2OH-A19, 2-(hydroxymethyl)-5-(morpholinomethyl)quinolin-8-ol]
IC50 [6]: > 3.2 µM | IC50 [7]: > 3.2 µM

SMILES: CCN(CC)CC(=O)Nc1c(C)cccc1C [compound 4, Lidocaine hydrochloride monohydrate]
IC50 [1]: > 100000 nM

SMILES: Oc1ccc(CN2CCN(Cc3ccc(C(F)(F)F)cc3)CC2)c2cccnc12 [QPCF34-Bn, 5-((4-(4-(trifluoromethyl)benzyl)piperazin-1-yl)methyl)quinolin-8-ol]
IC50 [6]: > 1.6 µM | IC50 [7]: > 1.6 µM

SMILES: CN(C)C(=O)Oc1c(I)cc(Cl)c2cccnc12 [compound 11, 5-chloro-7-iodo-8-quinolinyl dimethylcarbamate]
IC50 [5]: > 100000 nM

SMILES: O=[N+]([O-])c1cc(CN2CCOCC2)c2cccnc2c1O [A19-NO2 . 2 HCl, 4-((8-hydroxy-7-nitroquinolin-1-ium-5-yl)methyl)morpholin-4-ium chloride]
IC50 [6]: > 1.6 µM | IC50 [7]: > 1.6 µM

SMILES: Clc1cc2c(c3ncccc13)OCN(C1CCCC1)C2 [1c, 6-chloro-3-cyclopentyl-3,4-dihydro-2H-[1,3]oxazino[5,6-h]quinoline]
IC50 [2]: 760 nM | IC50 [3]: 850 nM

SMILES: CC(=O)Nc1ccc(O)cc1 [compound 2, Acetaminophen]
IC50 [1]: > 100000 nM

SMILES: O=C(Oc1cccc2cccnc12)c1ccc(Br)cc1 [compound 1, 8-quinolinyl 4-bromobenzoate]
IC50 [4]: > 100000 nM

SMILES: Cc1ccc2c(CN3CCN(c4ccc(Br)cc4)CC3)ccc(O)c2n1 [2-MeQPB4, 5-((4-(4-bromophenyl)piperazin-1-yl)methyl)-2-methylquinolin-8-ol]
IC50 [6]: > 3.2 µM | IC50 [7]: > 3.2 µM

SMILES: CCN(CC)C(=O)Oc1c(Cl)cc(Cl)c2cccnc12 [compound 6, 5,7-dichloro-8-quinolinyl diethylcarbamate]
IC50 [5]: > 100000 nM

SMILES: Cc1ccc2c(CN3CCN(c4ccc(Br)cc4)CC3)ccc(O)c2n1 [2-MeQPB4 . 2 HCl, 5-((4-(4-bromophenyl)piperazin-1-ium-1-yl)methyl)-8-hydroxy-2-methylquinolin-1-ium chloride]
IC50 [6]: > 1.6 µM | IC50 [7]: > 1.6 µM

SMILES: COc1ccc2[nH]cc(C(=O)N3CCN(c4ccccc4OC)CC3)c2c1 [IMP2, (5-methoxy-1H-indol-3-yl)(4-(2-methoxyphenyl)piperazin-1-yl)methanone]
IC50 [6]: > 1.6 µM | IC50 [7]: > 1.6 µM

The next lines start with the values.

IC50 [1]: > 100000 nM
SMILES: N[C@@H](Cc1ccc(O)cc1)C(=O)O [compound 10, L-Tyrosine]

IC50 [2]: 1070 nM | IC50 [3]: 1150 nM
SMILES: Clc1cc2c(c3ncccc13)OCN(CCc1ccccc1)C2 [compound 11, 6-chloro-3-phenethyl-3,4-dihydro-2H-[1,3]oxazino[5,6-h]quinoline]

IC50 [4]: > 100000 nM
SMILES: O=C(Oc1ccc(Cl)c2cccnc12)c1ccc(Cl)c(Cl)c1 [compound 10, 5-chloro-8-quinolinyl 3,4-dichlorobenzoate]

IC50 [4]: > 100000 nM
SMILES: Cc1cccc(C(=O)Oc2ccc(Cl)c3cccnc23)c1 [compound 18, 5-chloro-8-quinolinyl 3-methylbenzoate]

IC50 [4]: > 100000 nM
SMILES: O=C(Oc1ccc(Cl)c2cccnc12)c1cccc(Cl)c1 [compound 8, 5-chloro-8-quinolinyl 3-chlorobenzoate]

IC50 [4]: > 100000 nM
SMILES: COc1cc(C(=O)Oc2ccc(Cl)c3cccnc23)cc(OC)c1OC [compound 14, 5-chloro-8-quinolinyl 3,4,5-trimethoxybenzoate]

IC50 [2]: 740 nM | IC50 [3]: 890 nM
SMILES: CC(c1ccccc1)N1COc2c(cc(Cl)c3cccnc23)C1 (stereo not drawn) [compound 10, 6-chloro-3-(1-phenylethyl)-3,4-dihydro-2H-[1,3]oxazino[5,6-h]quinoline]

IC50 [1]: > 100000 nM
SMILES: CCc1ccc(CCOc2ccc(CC3SC(=O)NC3=O)cc2)nc1 (stereo not drawn) [compound 7, Pioglitazone hydrochloride]

IC50 [5]: > 100000 nM
SMILES: O=C(Oc1c(I)cc(Cl)c2cccnc12)N1CCCCC1 [compound 9, 5-chloro-7-iodo-8-quinolinyl 1-piperidinecarboxylate]

IC50 [5]: > 100000 nM
SMILES: O=C(Oc1c(Br)cc(Cl)c2cccnc12)N1CCOCC1 [compound 15, 7-bromo-5-chloro-8-quinolinyl 4-morpholinecarboxylate]

IC50 [4]: > 100000 nM
SMILES: O=C(Oc1ccc(Cl)c2cccnc12)c1cccc(Br)c1 [compound 7, 5-chloro-8-quinolinyl 3-bromobenzoate]

IC50 [2]: 1050 nM | IC50 [3]: 1150 nM
SMILES: CCCCN1COc2c(cc(Cl)c3cccnc23)C1 [compound 8, 3-butyl-6-chloro-3,4-dihydro-2H-[1,3]oxazino[5,6-h]quinoline]

IC50 [1]: > 100000 nM
SMILES: O=C(O)Cc1ccccc1Nc1c(Cl)cccc1Cl [compound 9, Diclofenac sodium salt]

IC50 [4]: > 100000 nM
SMILES: Cc1ccc(C(=O)Oc2c(Cl)cc(Cl)c3cccnc23)cc1C [compound 17, 5,7-dichloro-8-quinolinyl 3,4-dimethylbenzoate]

IC50 [4]: > 100000 nM
SMILES: COc1ccc(C(=O)Oc2cccc3cccnc23)cc1Cl [compound 13, 8-quinolinyl 3-chloro-4-methoxybenzoate]

IC50 [4]: > 100000 nM
SMILES: COc1cc(OC)cc(C(=O)Oc2ccc(Cl)c3cccnc23)c1 [compound 15, 5-chloro-8-quinolinyl 3,5-dimethoxybenzoate]

IC50 [5]: > 100000 nM
SMILES: CCN(CC)C(=O)Oc1c(I)cc(Cl)c2cccnc12 [compound 10, 5-chloro-7-iodo-8-quinolinyl diethylcarbamate]

IC50 [5]: > 100000 nM
SMILES: CCN(CC)C(=O)Oc1c(Br)cc(Cl)c2cccnc12 [compound 7, 7-bromo-5-chloro-8-quinolinyl diethylcarbamate]

IC50 [1]: > 100000 nM
SMILES: Nc1nc2ncc(CNc3ccc(C(=O)N[C@@H](CCC(=O)O)C(=O)O)cc3)nc2c(=O)[nH]1 [compound 12, Folic acid]

IC50 [5]: > 100000 nM
SMILES: O=C(Oc1c(Cl)cc(Cl)c2cccnc12)N1CCOCC1 [compound 14, 5,7-dichloro-8-quinolinyl 4-morpholinecarboxylate]

IC50 [4]: > 100000 nM
SMILES: COc1ccc(C(=O)Oc2ccc(Cl)c3cccnc23)cc1 [compound 16, 5-chloro-8-quinolinyl 4-methoxybenzoate]

IC50 [1]: > 100000 nM
SMILES: Cc1ncc(CO)c(CO)c1O [compound 8, Pyridoxine hydrochloride]
